Laboratory results published in US9969742B2, “Imidazotriazinone compounds” (Ironwood Pharmaceuticals, Inc., priority 2012, dated 2018).
Read-outs that look alike come from different tables or passages of the source.

Columns and labels:
Format in all cases: biochemical
PDE9A2 = target: T1, PDE9A2 (Homo sapiens, UniProt O76083); test: Phosphodiesterase enzyme screening assay, PDE9A2; conditions: 4.0 μM cGMP substrate, 1 hour at R.T., read-out: Band (PDE9A2 IC50)
T1 construct: purchased Reaction Biology Corporation, Malvern, Pa
T1 sequence (O76083 1-533 isoform O76083-2): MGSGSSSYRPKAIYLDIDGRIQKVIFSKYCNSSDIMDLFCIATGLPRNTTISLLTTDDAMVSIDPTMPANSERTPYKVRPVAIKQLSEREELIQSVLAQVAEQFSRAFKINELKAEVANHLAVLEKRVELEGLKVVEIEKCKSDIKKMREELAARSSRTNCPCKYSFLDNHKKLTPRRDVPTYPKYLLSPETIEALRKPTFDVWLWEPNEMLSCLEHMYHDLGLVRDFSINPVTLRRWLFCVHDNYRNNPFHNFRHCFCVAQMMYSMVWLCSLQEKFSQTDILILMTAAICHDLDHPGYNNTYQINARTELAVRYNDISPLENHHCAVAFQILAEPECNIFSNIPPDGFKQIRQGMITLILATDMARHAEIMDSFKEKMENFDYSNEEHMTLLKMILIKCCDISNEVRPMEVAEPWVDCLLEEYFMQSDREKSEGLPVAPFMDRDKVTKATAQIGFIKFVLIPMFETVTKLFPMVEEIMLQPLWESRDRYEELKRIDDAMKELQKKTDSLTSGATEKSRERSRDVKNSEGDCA
Outline: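 Recombinant enzymes were run in 100 mM HEPES pH 7.5, 5 mM MgCl2, 1 mM DTT, 0.003% Brij with 4.0 μM cGMP substrate, started with cGMP or cAMP, 1 h at RT, and stopped with EDTA. Fluorescent substrate and product were separated by microfluidic mobility shift.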

PDE1A = target: T2, PDE1A (Homo sapiens, UniProt P54750); test: Phosphodiesterase enzyme screening assay, PDE1A
T2 construct: purchased Reaction Biology Corporation, Malvern, Pa
T2 sequence (P54750 whole entry): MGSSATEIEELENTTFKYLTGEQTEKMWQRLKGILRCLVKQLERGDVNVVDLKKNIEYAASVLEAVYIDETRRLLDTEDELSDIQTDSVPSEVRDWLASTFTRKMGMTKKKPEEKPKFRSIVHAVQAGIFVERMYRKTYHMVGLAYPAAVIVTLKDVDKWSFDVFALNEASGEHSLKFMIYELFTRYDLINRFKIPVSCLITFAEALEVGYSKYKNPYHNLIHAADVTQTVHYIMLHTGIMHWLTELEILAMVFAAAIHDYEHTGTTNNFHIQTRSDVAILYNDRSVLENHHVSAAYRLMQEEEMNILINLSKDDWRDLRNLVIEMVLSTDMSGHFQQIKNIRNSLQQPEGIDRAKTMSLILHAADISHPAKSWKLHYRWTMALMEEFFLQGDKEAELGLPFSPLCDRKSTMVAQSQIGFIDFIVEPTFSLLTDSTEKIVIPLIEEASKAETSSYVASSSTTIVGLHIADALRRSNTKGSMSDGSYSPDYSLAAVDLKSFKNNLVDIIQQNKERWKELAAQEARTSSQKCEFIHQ
From the text: (§1) Compounds of the invention were screened against PDE1A, PDE1B, PDE2A, PDE3A, PDE3B, PDE4A1A, PDE4B1, PDE4D3, PDE5A1, PDE6C, PDE7A, PDE8A1, PDE9A2, PDE10A2 AND PDE11A isoforms of the phosphodiesterase enzyme to determine activity and overall selectivity through comparative analysis. […] Where 8-methoxy-IBMX and Zaprinast were used as reference inhibitors.
(§2) The phosphodiesterase enzyme isoforms were obtained from a commercial retailer (Reaction Biology Corporation, Malvern, Pa.) for use in the instant screening assay.
(§3) The analysis was completed using the Caliper LabChip 3000 and a 12-sipper LabChip. LabChip assays are separations-based, meaning that the product and substrate are electrophoretically separated, thereby minimizing interferences and yielding the highest data quality available on any screening platform. […] High Z′ values, few false positives, few false negatives and analytical quality reproducibility are the reasons cited for the increasing reliance on the LabChip assays.
(§4) The off-chip incubation mobility-shift phosphodiesterase assay uses a microfluidic chip to measure the conversion of a fluorescent cyclic AMP substrate to a 5′-AMP product, or a cyclic GMP substrate to a 5′-GMP product. The reaction mixture, from a microtiter plate well, is introduced through a capillary sipper onto the chip, where the fluorescent substrate and product are separated by electrophoresis and detected via laser-induced fluorescence. […] The precision of microfluidics allows researchers to detect subtle interactions between drug candidates and therapeutic targets.
(§5) Reactions were carried out in 100 mM HEPES (pH 7.5), 5 mM MgCl2, 1 mM DTT, 0.003% Brij, 4.0 μM cGMP substrate. The reaction was started by addition of cGMP or cAMP and incubated for 1 hour at R.T. The reaction was terminated by the addition of stop buffer containing 100 mM HEPES (pH 7.5), 15 mM EDTA, 0.015% Brij-35, 5% DMSO. Cyclic AMP/GMP substrate and 5′-AMP/5′-GMP product were separated by charge using electrophoretic mobility shift. Product formed was compared to control wells to determine inhibition or enhancement of enzyme activity.
(§6) Data points were averages of quadruplicate wells and error bars represented the SEM for each point.

PDE1B = target: T3, PDE1B (Homo sapiens, UniProt Q01064); test: Phosphodiesterase enzyme screening assay, PDE1B
T3 construct: purchased Reaction Biology Corporation, Malvern, Pa
T3 sequence (Q01064 whole entry): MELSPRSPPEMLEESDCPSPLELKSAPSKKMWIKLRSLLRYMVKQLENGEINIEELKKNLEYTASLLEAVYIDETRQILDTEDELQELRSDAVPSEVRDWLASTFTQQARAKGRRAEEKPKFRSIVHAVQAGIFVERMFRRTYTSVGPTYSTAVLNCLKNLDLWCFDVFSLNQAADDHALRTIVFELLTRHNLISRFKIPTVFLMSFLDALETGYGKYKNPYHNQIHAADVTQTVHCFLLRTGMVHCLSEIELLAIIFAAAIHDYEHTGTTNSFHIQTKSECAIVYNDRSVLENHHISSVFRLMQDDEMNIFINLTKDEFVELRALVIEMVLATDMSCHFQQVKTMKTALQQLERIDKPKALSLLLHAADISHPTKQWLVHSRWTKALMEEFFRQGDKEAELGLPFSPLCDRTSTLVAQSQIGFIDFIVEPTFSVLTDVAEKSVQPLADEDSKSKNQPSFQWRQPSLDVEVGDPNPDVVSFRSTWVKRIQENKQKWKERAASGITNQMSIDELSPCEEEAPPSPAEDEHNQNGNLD
From the text: as §1, §2, §3, §4, §5, §6

[1] = ratio of IC50 values PDE1A / PDE9A2, value greater than 1 = greater selectivity for PDE9A2
[2] = ratio of IC50 values PDE1B / PDE9A2, value greater than 1 = greater selectivity for PDE9A2
[3] = Table 1, ratio of IC50 values, value greater than 1 indicates greater selectivity for PDE9A2

SMILES	IC50 (PDE9A2) [nM]	PDE1A selectivity (versus PDE9A2) (PDE1A; [1])	PDE1B selectivity (versus PDE9A2) (PDE1B; [2])	IC50 (PDE9A2; Table 1, 10 concentrations) [nM]	PDE1A selectivity (versus PDE9A2) (PDE1A; [3])	PDE1B selectivity (versus PDE9A2) (PDE1B; [3])
CC1CN(Cc2c(F)ccc(F)c2Cl)CC1c1nn2c(C3CCOCC3)ncc2c(=O)[nH]1 (single isomer, unassigned; (+)) [(+)-2-((3,4-trans)-1-(2-chloro-3,6-difluorobenzyl)-4-methylpyrrolidin-3-yl)-7-(tetrahydro-2H-pyran-4-yl)imidazo[5,1-f][1,2,4]triazin-4(3H)-one]	< 1000	118	231	–	–	–
CC1CN(Cc2cc(F)ccc2Cl)CC1c1nn2c(C3CCOCC3)ncc2c(=O)[nH]1 (single isomer, unassigned; (+)) [(+)-2-((3,4-trans)-1-(2-chloro-5-fluorobenzyl)-4-methylpyrrolidin-3-yl)-7-(tetrahydro-2H-pyran-4-yl)imidazo[5,1-f][1,2,4]triazin-4(3H)-one]	< 1000	177	73	–	–	–
CC1CN(Cc2c(F)cccc2Cl)CC1c1nn2c(C3CCOCC3)ncc2c(=O)[nH]1 (single isomer, unassigned; (+)) [(+)-2-((3,4-trans)-1-(2-chloro-6-fluorobenzyl)-4-methylpyrrolidin-3-yl)-7-(tetrahydro-2H-pyran-4-yl)imidazo[5,1-f][1,2,4]triazin-4(3H)-one]	< 1000	196	252	–	–	–
CC1CN(Cc2ccc(F)c(Cl)c2)CC1c1nn2c(C3CCOCC3)ncc2c(=O)[nH]1 (single isomer, unassigned; (+)) [(+)-2-((3,4-trans)-1-(3-chloro-4-fluorobenzyl)-4-methylpyrrolidin-3-yl)-7-(tetrahydro-2H-pyran-4-yl)imidazo[5,1-f][1,2,4]triazin-4(3H)-one]	< 1000	604	430	–	–	–
CC1CN(Cc2cc(Cl)cc(C(F)(F)F)c2)CC1c1nn2c(C3CCOCC3)ncc2c(=O)[nH]1 (single isomer, unassigned; (+)) [(+)-2-((3,4-trans)-1-(3-chloro-5-(trifluoromethyl)benzyl)-4-methylpyrrolidin-3-yl)-7-(tetrahydro-2H-pyran-4-yl)imidazo[5,1-f][1,2,4]triazin-4(3H)-one]	< 1000	236	105	–	–	–
CC1CN(Cc2cccc(Cl)c2)CC1c1nn2c(C3CCOCC3)ncc2c(=O)[nH]1 (single isomer, unassigned; (+)) [(+)-2-((3,4-trans)-1-(3-chlorobenzyl)-4-methylpyrrolidin-3-yl)-7-(tetrahydro-2H-pyran-4-yl)imidazo[5,1-f][1,2,4]triazin-4(3H)-one]	–	–	–	< 1000	470	331
CC1CN(Cc2cccc(C3CC3)c2)CC1c1nn2c(C3CCOCC3)ncc2c(=O)[nH]1 (single isomer, unassigned; (+)) [(+)-2-((3,4-trans)-1-(3-cyclopropylbenzyl)-4-methylpyrrolidin-3-yl)-7-(tetrahydro-2H-pyran-4-yl)imidazo[5,1-f][1,2,4]triazin-4(3H)-one]	–	–	–	< 1000	703	903
COc1cccc(CN2CC(C)C(c3nn4c(C5CCOCC5)ncc4c(=O)[nH]3)C2)c1 (single isomer, unassigned; (+)) [(+)-2-((3,4-trans)-1-(3-methoxybenzyl)-4-methylpyrrolidin-3-yl)-7-(tetrahydro-2H-pyran-4-yl)imidazo[5,1-f][1,2,4]triazin-4(3H)-one]	–	–	–	< 1000	1347	477

The next lines start with the values.

IC50 (PDE9A2) [nM]	PDE1A selectivity (versus PDE9A2) (PDE1A; [1])	PDE1B selectivity (versus PDE9A2) (PDE1B; [2])	IC50 (PDE9A2; Table 1, 10 concentrations) [nM]	PDE1A selectivity (versus PDE9A2) (PDE1A; [3])	PDE1B selectivity (versus PDE9A2) (PDE1B; [3])	SMILES
–	–	–	< 1000	92	48	CC1CN(Cc2ccccc2Cl)CC1c1nn2c(C3CCOCC3)ncc2c(=O)[nH]1 (single isomer, unassigned; (+)) [(+)-2-((3,4-trans)-1-(2-chlorobenzyl)-4-methylpyrrolidin-3-yl)-7-(tetrahydro-2H-pyran-4-yl)imidazo[5,1-f][1,2,4]triazin-4(3H)-one]
–	–	–	< 1000	340	255	COc1ccc(F)c(CN2CC(C)C(c3nn4c(C5CCOCC5)ncc4c(=O)[nH]3)C2)c1 (single isomer, unassigned; (+)) [(+)-2-((3,4-trans)-1-(2-fluoro-5-methoxybenzyl)-4-methylpyrrolidin-3-yl)-7-(tetrahydro-2H-pyran-4-yl)imidazo[5,1-f][1,2,4]triazin-4(3H)-one]
–	–	–	< 1000	300	442	CC1CN(Cc2ccccc2F)CC1c1nn2c(C3CCOCC3)ncc2c(=O)[nH]1 (single isomer, unassigned; (+)) [(+)-2-((3,4-trans)-1-(2-fluorobenzyl)-4-methylpyrrolidin-3-yl)-7-(tetrahydro-2H-pyran-4-yl)imidazo[5,1-f][1,2,4]triazin-4(3H)-one]
–	–	–	< 1000	337	230	COc1ccccc1CN1CC(C)C(c2nn3c(C4CCOCC4)ncc3c(=O)[nH]2)C1 (single isomer, unassigned; (+)) [(+)-2-((3,4-trans)-1-(2-methoxybenzyl)-4-methylpyrrolidin-3-yl)-7-(tetrahydro-2H-pyran-4-yl)imidazo[5,1-f][1,2,4]triazin-4(3H)-one]
–	–	–	< 1000	1297	2627	CC1CN(Cc2ccc(Cl)c(Cl)c2)CC1c1nn2c(C3CCOCC3)ncc2c(=O)[nH]1 (single isomer, unassigned; (+)) [(+)-2-((3,4-trans)-1-(3,4-dichlorobenzyl)-4-methylpyrrolidin-3-yl)-7-(tetrahydro-2H-pyran-4-yl)imidazo[1,5-f][1,2,4]triazin-4(3H)-one]
–	–	–	< 1000	93	92	CC1CN(Cc2cc(Cl)cc(Cl)c2)CC1c1nn2c(C3CCOCC3)ncc2c(=O)[nH]1 (single isomer, unassigned; (+)) [(+)-2-((3,4-trans)-1-(3,5-dichlorobenzyl)-4-methylpyrrolidin-3-yl)-7-(tetrahydro-2H-pyran-4-yl)imidazo[5,1-f][1,2,4]triazin-4(3H)-one]
–	–	–	< 1000	1710	1043	CC1CN(Cc2cc(F)cc(F)c2)CC1c1nn2c(C3CCOCC3)ncc2c(=O)[nH]1 (single isomer, unassigned; (+)) [(+)-2-((3,4-trans)-1-(3,5-difluorobenzyl)-4-methylpyrrolidin-3-yl)-7-(tetrahydro-2H-pyran-4-yl)imidazo[1,5-f][1,2,4]triazin-4(3H)-one]
–	–	–	< 1000	612	1490	CC1CN(Cc2cccc(-n3cccn3)c2)CC1c1nn2c(C3CCOCC3)ncc2c(=O)[nH]1 (single isomer, unassigned; (+)) [(+)-2-((3,4-trans)-1-(3-(1H-pyrazol-1-yl)benzyl)-4-methylpyrrolidin-3-yl)-7-(tetrahydro-2H-pyran-4-yl)imidazo[5,1-f][1,2,4]triazin-4(3H)-one]
–	–	–	< 1000	680	923	CC1CN(Cc2cccc(N(C)C)c2)CC1c1nn2c(C3CCOCC3)ncc2c(=O)[nH]1 (single isomer, unassigned; (+)) [(+)-2-((3,4-trans)-1-(3-(dimethylamino)benzyl)-4-methylpyrrolidin-3-yl)-7-(tetrahydro-2H-pyran-4-yl)imidazo[5,1-f][1,2,4]triazin-4(3H)-one]
–	–	–	< 1000	243	92	CC1CN(Cc2cccc(Br)c2)CC1c1nn2c(C3CCOCC3)ncc2c(=O)[nH]1 (single isomer, unassigned; (+)) [(+)-2-((3,4-trans)-1-(3-bromobenzyl)-4-methylpyrrolidin-3-yl)-7-(tetrahydro-2H-pyran-4-yl)imidazo[5,1-f][1,2,4]triazin-4(3H)-one]
